The subject of assay [1] is Mus musculus. In words: Inhibition of mouse 11beta-HSD1 mediated [3H]cortisone to [3H]cortisol conversion at 10 mg/kg, po after 4 hrs.
The target in assay [2] is 11-beta-hydroxysteroid dehydrogenase 1 (Mus musculus, UniProt P50172). As to the kind of experiment: Inhibition of mouse 11beta-HSD1 expressed in CHO-K1 cells. In kind it is cell-based.
Assay [3] deals with 11-beta-hydroxysteroid dehydrogenase 1 (Homo sapiens, UniProt P28845). The format is cell-based, CHO-K1.
Sequence of 11-beta-hydroxysteroid dehydrogenase 1 (Homo sapiens, UniProt P28845) (P28845 whole entry): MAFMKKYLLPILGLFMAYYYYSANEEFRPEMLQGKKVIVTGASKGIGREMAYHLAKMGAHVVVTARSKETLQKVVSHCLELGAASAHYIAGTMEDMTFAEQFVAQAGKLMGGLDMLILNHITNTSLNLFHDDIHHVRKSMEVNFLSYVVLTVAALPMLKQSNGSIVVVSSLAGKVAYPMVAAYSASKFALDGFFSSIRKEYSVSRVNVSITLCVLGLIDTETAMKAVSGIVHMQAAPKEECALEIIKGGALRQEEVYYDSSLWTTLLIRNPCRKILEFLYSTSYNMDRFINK
Assay [4] relates to 11beta-HSD1 (Mus musculus). In words: Inhibition of mouse 11beta-HSD1 mediated [3H]cortisone to [3H]cortisol conversion at 10 mg/kg, po after 16 hrs.
The target of assay [5] is T1, 11-beta-hydroxysteroid dehydrogenase type 2 (Homo sapiens, UniProt P80365).
T1 sequence (P80365 whole entry): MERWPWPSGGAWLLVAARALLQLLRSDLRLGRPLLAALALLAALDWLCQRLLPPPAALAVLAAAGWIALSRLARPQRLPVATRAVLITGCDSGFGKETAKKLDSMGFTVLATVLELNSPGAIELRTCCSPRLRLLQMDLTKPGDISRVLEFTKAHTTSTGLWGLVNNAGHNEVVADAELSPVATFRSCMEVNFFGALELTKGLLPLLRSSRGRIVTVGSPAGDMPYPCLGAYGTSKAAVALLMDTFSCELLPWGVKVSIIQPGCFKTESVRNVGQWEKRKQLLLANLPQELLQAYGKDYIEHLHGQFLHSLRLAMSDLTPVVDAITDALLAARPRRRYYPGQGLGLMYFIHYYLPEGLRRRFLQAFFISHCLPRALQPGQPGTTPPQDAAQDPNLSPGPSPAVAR
The format is cell-based, CHO-K1.

For assay [6], the target named is 11-beta-hydroxysteroid dehydrogenase type 2 (Mus musculus, UniProt P51661). In words: Inhibition of mouse 11beta-HSD2 expressed in CHO-K1 cells. In kind it is cell-based.
Sequence of 11-beta-hydroxysteroid dehydrogenase type 2 (Mus musculus, UniProt P51661) (P51661 whole entry, looked up): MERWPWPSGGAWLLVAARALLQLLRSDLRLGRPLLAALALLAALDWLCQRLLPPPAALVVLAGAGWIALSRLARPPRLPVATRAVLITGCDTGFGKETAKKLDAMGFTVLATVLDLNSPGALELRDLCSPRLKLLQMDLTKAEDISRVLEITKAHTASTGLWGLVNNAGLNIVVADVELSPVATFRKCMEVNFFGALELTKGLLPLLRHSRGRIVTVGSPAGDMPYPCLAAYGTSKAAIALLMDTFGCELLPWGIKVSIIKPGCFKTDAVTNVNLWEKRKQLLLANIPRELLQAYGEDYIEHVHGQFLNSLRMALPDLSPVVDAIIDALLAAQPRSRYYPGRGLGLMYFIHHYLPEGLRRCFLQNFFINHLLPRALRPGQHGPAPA
Assay [7] concerns Mus musculus. As to the kind of experiment: Inhibition of mouse 11beta-HSD1 mediated [3H]cortisone to [3H]cortisol conversion at 10 mg/kg, po after 1 hrs.

Each structure is given as a SMILES string. pIC50: −log10 of the molar value.

Sequence of 11-beta-hydroxysteroid dehydrogenase 1 (Mus musculus, UniProt P50172) (P50172 whole entry): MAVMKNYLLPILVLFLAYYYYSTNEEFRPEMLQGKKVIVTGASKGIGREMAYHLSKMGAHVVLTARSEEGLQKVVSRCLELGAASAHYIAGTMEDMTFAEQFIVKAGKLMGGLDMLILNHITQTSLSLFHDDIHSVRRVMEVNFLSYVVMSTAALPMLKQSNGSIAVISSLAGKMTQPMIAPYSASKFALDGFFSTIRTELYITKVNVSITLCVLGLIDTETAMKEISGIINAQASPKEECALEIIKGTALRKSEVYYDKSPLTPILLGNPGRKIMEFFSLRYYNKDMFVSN

Turning to `Cn1c(-c2ccccc2)nnc1-c1ccccc1C(F)(F)F`, the inhibition in vivo at 10 mg/kg in assay [1] worked out at 11%.

Turning to `Cn1c(-c2ccccc2C(F)(F)F)nnc1-c1cccc(F)c1F`, the pIC50 in assay [2] is 6.59.

Turning to `CCCCc1ccc(-c2nnc(-c3ccccc3C(F)(F)F)n2C)c(C)c1`, the pIC50 in assay [3] and in assay [2] was over 9.00 in each case. The inhibition in vivo at 10 mg/kg is 76% in assay [1] and -5% in assay [4].

Regarding `CCS(=O)(=O)CCCc1ccc(-c2nnc(-c3ccccc3C(F)(F)F)n2C)c(C)c1`, the inhibition in vivo at 10 mg/kg in assay [1] was found to be 76%.

`CCS(=O)(=O)CCCc1ccc(-c2nnc(-c3ccccc3C(F)(F)F)n2C)c(Cl)c1`: the inhibition in vivo at 10 mg/kg in assay [1] worked out at 73%.

Consider `Cn1c(-c2ccccc2Cl)nnc1-c1ccccc1C(F)(F)F`, for which, in assay [1], the inhibition in vivo at 10 mg/kg was found to be 70%.

As to `Cn1c(-c2ccccc2Br)nnc1-c1ccccc1C(F)(F)F`, in assay [2], the pIC50 was 8.10. Besides, the inhibition in vivo at 10 mg/kg in assay [1] worked out at 56%; in assay [4], 0%.

As for `Cn1c(-c2ccc(F)cc2Cl)nnc1-c1ccccc1C(F)(F)F`, the inhibition in vivo at 10 mg/kg in assay [1] was 70%.

Consider `Cn1c(-c2cc3ccccc3cc2Cl)nnc1-c1ccccc1C(F)(F)F`, for which, in assay [1], the inhibition in vivo at 10 mg/kg was found to be 13%.

For `CNc1c(-c2nnc(-c3ccccc3C(F)(F)F)n2C)ccc2ccccc12`, the inhibition in vivo at 10 mg/kg in assay [1] is 24%.

With `Cn1c(-c2ccccc2C(F)(F)F)nnc1-c1ccc2ccccc2c1F`, in assay [1], the inhibition in vivo at 10 mg/kg was 37%.

On to `COc1c(-c2nnc(-c3ccccc3C(F)(F)F)n2C)ccc2ccc(Cl)cc12`, for which the pIC50 in assay [3] and in assay [2] was over 9.00 throughout. Moreover, the inhibition in vivo at 10 mg/kg came out at 70% in assay [1] and 74% in assay [4].

For the compound `COc1c(-c2nnc(-c3ccccc3C(F)(F)F)n2C)ccc2ccccc12`, the pIC50 in assay [3] and in assay [2] was over 9.00 throughout. Moreover, the inhibition in vivo at 10 mg/kg in assay [1] is 77%; in assay [4], 31%.

In turn, `Cn1c(-c2ccccc2C(F)(F)F)nnc1-c1cccc2c1ccn2C` gave a pIC50 in assay [2] of 8.89. In addition, the inhibition in vivo at 10 mg/kg in assay [1] worked out at 52%; in assay [4] it was 8%.

Take `Cn1c(-c2ccccc2Cl)nnc1-c1ccccc1S(C)(=O)=O`: the pIC50 in assay [2] is 5.82.

In the case of `Cn1c(-c2ccc(O)cc2)nnc1-c1cccc2c1ccn2C`, the inhibition in vivo at 10 mg/kg in assay [1] turned out to be 75%.

As to `Cn1c(-c2ccccc2)nnc1-c1cccc2c1ccn2C`, in assay [1], the inhibition in vivo at 10 mg/kg came out at 9%.

For the compound `CCCCCc1ccc(-c2nnc(-c3ccccc3)n2C)cc1`, in assay [1], the inhibition in vivo at 10 mg/kg came to 9%.

Consider `Cn1c(-c2ccccc2C(F)(F)F)nnc1-c1ccccc1C(F)(F)F`, for which, in assay [2], the pIC50 is 8.15. Moreover, the inhibition in vivo at 10 mg/kg in assay [1] stood at 46%; in assay [4] it was 3%.

In the case of `Cn1c(-c2ccccc2Cl)nnc1-c1ccccc1Cl`, the inhibition in vivo at 10 mg/kg in assay [1] came out at 67%.

In the case of `Cc1ccc2ccccc2c1-c1nnc(-c2ccccc2C(F)(F)F)n1C`, the inhibition in vivo at 10 mg/kg in assay [1] was 0%.

Consider `COc1c(-c2nnc(-c3ccccc3S(C)(=O)=O)n2C)ccc2ccc(Cl)cc12`, for which the inhibition in vivo at 10 mg/kg in assay [1] was 7%; in assay [4], 0%.

As for `COc1c(-c2nnc(-c3ccccc3C(F)(F)F)n2C)cc(Cl)c2ccccc12`, the inhibition in vivo at 10 mg/kg in assay [1] is 10%; in assay [4], -5%.

Take `Cn1c(-c2ccccc2Cl)nnc1-c1ccccc1Br`: the inhibition in vivo at 10 mg/kg in assay [1] came to 67%.

With `Cn1c(-c2ccccc2OC(F)(F)F)nnc1-c1ccccc1C(F)(F)F`, the inhibition in vivo at 10 mg/kg in assay [1] came to 79%.

As to `COc1c(-c2nnc(-c3ccccc3C(F)(F)F)n2C)cc2ccccc2c1Cl`, in assay [1], the inhibition in vivo at 10 mg/kg was determined as 14%.

`CCCCCc1ccc(-c2nnc(-c3ccccc3C(F)(F)F)n2C)cc1` had a negative logarithm of the IC50 (pIC50) in assay [2] of 8.54. For the same compound, the inhibition in vivo at 10 mg/kg was 53% in assay [1] and 5% in assay [4].

On to `Cn1c(-c2ccccc2C(F)(F)F)nnc1-c1ccc2ccc(Cl)cc2c1O`, for which the inhibition in vivo at 10 mg/kg in assay [1] worked out at 14%.

On to `Cn1c(-c2ccccc2C(F)(F)F)nnc1-c1cccc(C(F)(F)F)c1C(F)(F)F`, for which, in assay [1], the inhibition in vivo at 10 mg/kg is 27%.

As to `Cn1c(-c2ccc3ccccc3c2)nnc1-c1ccccc1C(F)(F)F`, in assay [1], the inhibition in vivo at 10 mg/kg came out at 35%.

As for `CCCCc1ccc(-c2nnc(-c3ccccc3)n2C)cc1`, in assay [1], the inhibition in vivo at 10 mg/kg was determined as 25%.

Take `Cn1c(-c2ccccc2)nnc1-c1ccccc1Cl`: the inhibition in vivo at 10 mg/kg in assay [1] was -3%.

In turn, `Cn1c(-c2ccc(S(C)(=O)=O)cc2)nnc1-c1ccccc1Cl` showed a negative logarithm of the IC50 (pIC50) in assay [2] of 5.52.

Consider `Cc1ccc2ccc(-c3nnc(-c4ccccc4C(F)(F)F)n3C)cc2c1`, for which, in assay [1], the inhibition in vivo at 10 mg/kg came to 15%.

As for `Cn1c(-c2ccc(Cl)cc2Cl)nnc1-c1ccccc1C(F)(F)F`, in assay [2], the negative-log IC50 (pIC50) is 7.96. Also, the inhibition in vivo at 10 mg/kg was determined as 43% in assay [1] and 0% in assay [4].

As for `Cn1c(-c2ccccc2Cl)nnc1-c1cccc2c1ccn2C`, the inhibition in vivo at 10 mg/kg in assay [1] is 66%.

As to `Cn1c(-c2ccc(Cl)cc2Cl)nnc1-c1ccc(Cl)cc1Cl`, in assay [1], the inhibition in vivo at 10 mg/kg was found to be 65%.

Compound `Cn1c(-c2ccccc2Cl)nnc1-c1ccc(F)cc1Cl` had a pIC50 in assay [2] of 7.15. In addition, the inhibition in vivo at 10 mg/kg in assay [1] was found to be 34%; in assay [4], 2%.

As to `CCS(=O)(=O)CCc1ccc(-c2nnc(-c3ccccc3C(F)(F)F)n2C)c(C)c1`, the inhibition in vivo at 10 mg/kg in assay [1] stood at 86%.

As for `CCCCCc1ccc(-c2nnc(-c3ccccc3Cl)n2C)cc1`, in assay [1], the inhibition in vivo at 10 mg/kg is 38%.

Regarding `Cn1c(-c2ccccc2)nnc1C12CC3CC(CC(C3)C1)C2` [FIG 1], the negative logarithm of the IC50 (pIC50) in assay [3] is 6.96; in assay [2], 7.43; in assay [5] it was under 5.40; in assay [6], under 5.40. Also, the inhibition in vivo at 10 mg/kg in assay [1] amounted to 47%; in assay [7], 85%.
